From patent US20150306165A1, “PLANT EXTRACT COMPOSITION FOR INHIBITING ADIPOCYTES, REDUCING BODY FAT, PROMOTING WEIGHT LOSS AND INCREASING LIPID METABOLISM AS WELL AS APPLICATION THEREOF” (CALIWAY BIOMEDICAL CO., LTD., priority 2014, published 2015)
Marks after values point to notes of the source that are not given here.

Legend:
[1] = Animal assay (I): high fat diet rats, weight gain and body fat; assay type: in vivo, Sprague-Dawley (SD) male rats; details: positive control group
Procedure: Sprague-Dawley (SD) male rats were used in this example. There were six groups for test, respectively as a normal group, an obese group, a positive control group (Orlistat®, 18.6 mg/kg BW), a low-dose experimental group (the formulation LB004: 223.2 mg/kg BW), a medium-dose experimental group (the formulation LB004: 446.4 mg/kg BW), and a high-dose experimental group (the formulation LB004: 892.8 mg/kg BW). Ten male rats were used in each group. During the 8-week experiment period, high fat diets were fed ad libitum for all groups except […]. Three formulation LB004 doses of the present invention were orally given simultaneously during the experiment and body weight loss and lipid mass reduction were evaluated. Bodyweight, food and water intake were recorded weekly. In the end of the test, total amount of fat and the percentage of fat dry weight were determined.
In the end of the experiment, the rats were sacrificed. Epididymis fat, perinephric fat, and mesenteric fat were weighted and the total amount of internal fat was calculated. In addition, the fat of groin and the extraperitoneal fat were weighted to calculate the amount of subcutaneous fat.
In addition, the wet weights of rat bodies were weighed. Then the rat bodies were dried in an oven at 105° C. to constant dry weight for measuring dry weights of the rat bodies. The rat bodies were pulverized by uniform homogenizer. The percentage of dry weight and the amount of crude fat of whole animals is calculated by diethyl ether extraction at 2 to 3 different sampling points.

[2] = Animal assay (IV): high fat diet mice, 8 weeks, weight gain and fat; assay type: in vivo, B6 strain male mice
Procedure: B6 strain male mice were used in this example. There were five groups for test, respectively as the obese group, the resveratrol (61.5 mg/kg BW), the green tea extract (123 mg/kg BW), and experimental groups such as the formulation LB001 (338.25 mg/kg BW) and the formulation LB0008 (326 mg/kg BW). Five male animals were used in each group. During the test, high fat diets and experimental substrates were fed for all groups to induce obesity during eight weeks. In the experimental duration, weight and the average daily intake were recorded. In the end of the experiment, the mice were sacrificed to weight epididymis fat, perinephric fat, and mesenteric fat and calculate the total amount of visceral fat; groin fat and extra-abdominal fat were weighed to calculate the amount of subcutaneous fat.

Structure (SMILES) | fat (dry weight) ([1]; 18.6 mg/kg B.W., 8 weeks) | total fat mass ([1]; 18.6 mg/kg B.W., 8 weeks) | total weight gain ([1]; 18.6 mg/kg B.W., 8 weeks) | body fat decrease compared with the obese group ([1]; 18.6 mg/kg BW) [%] | body weight decline compared with the obese group ([1]; 18.6 mg/kg BW) [%] | decrease of percentage of fat dry weight compared with the obese group ([1]; 18.6 mg/kg BW) [%] | visceral fat, subcutaneous fat, and total fat mass compared with the obese group ([2]; resveratrol 61.5 mg/kg BW, FIG. 10) | inhibitory effect on weight gain ([2]; resveratrol alone 61.5 mg/kg BW, FIG. 9)
CCCCCCCCCCC[C@@H](C[C@@H]1OC(=O)[C@H]1CCCCCC)OC(=O)[C@H](CC(C)C)NC=O [Orlistat®, Orlistat] | 31.6 ± 6.0^a % | 38.1 ± 8.8^c g | 240.1 ± 24.4^c g | 23.9 | 12.0 | 17.4 |  | 
Oc1ccc(C=Cc2cc(O)cc(O)c2)cc1 [resveratrol] |  |  |  |  |  |  | no statistical difference | poor and had no statistical difference from the obese group
